A short description of the data set: Solubility enhancement of zotarolimus with select excipients in PBS. Format: physicochemical. The settings on record: n = 3. From the text: Table 1 provides non-limiting examples of the solubility enhancement provided by excipients that can be used in accordance with the disclosed subject matter: […]

In the case of `CO[C@H]1C[C@@H]2CC[C@@H](C)[C@@](O)(O2)C(=O)C(=O)N2CCCC[C@H]2C(=O)O[C@H]([C@H](C)C[C@@H]2CC[C@H](n3cnnn3)[C@H](OC)C2)CC(=O)[C@H](C)/C=C(\C)[C@@H](O)[C@@H](OC)C(=O)[C@H](C)C[C@H](C)/C=C/C=C/C=C/1C` [Zotarolimus, zotarolimus], the solubility – broadly, how much of the substance goes into solution per volume – (PBS with 5% w/w PEG 400, aqueous with cosolvent or surfactant or cyclodextrin, PEG 400 5% w/w in PBS) was 0.0315 ± 0.0035 mg/mL; the solubility (PBS with 5% w/w PEG-PE, aqueous with cosolvent or surfactant or cyclodextrin, PEG-PE 5% w/w in PBS) was found to be 1.02 ± 0.417 mg/mL; the solubility (PBS with 5% w/w PVP C-17, aqueous with cosolvent or surfactant or cyclodextrin, PVP C-17 5% w/w in PBS) was 0.0056 ± 0.0016 mg/mL; the solubility (PBS with 5% w/w Tween 20, aqueous with cosolvent or surfactant or cyclodextrin, Tween 20 5% w/w in PBS) came to 0.732 ± 0.0947 mg/mL; the solubility (PBS with 5% w/w Vitamin E TPGS, aqueous with cosolvent or surfactant or cyclodextrin, Vitamin E TPGS 5% w/w in PBS) was 0.512 ± 0.0495 mg/mL; the solubility (PBS with 5% w/w glycerol, aqueous with cosolvent or surfactant or cyclodextrin, Glycerol 5% w/w in PBS) is 0.0432 ± 0.0301 mg/mL. The solubility was 0.0116 ± 0.0031 mg/mL (PBS with 5% w/w hydroxypropyl-β-cyclodextrin, aqueous with cosolvent or surfactant or cyclodextrin, Hydroxypropyl-β-cyclodextrin 5% w/w in PBS) and 0.0553 ± 0.0343 mg/mL (PBS with 5% γ-cyclodextrin, aqueous with cosolvent or surfactant or cyclodextrin, 5% γ-Cyclodextrin in PBS).

The record behind these values is patent US20110144577A1, “HYDROPHILIC COATINGS WITH TUNABLE COMPOSITION FOR DRUG COATED BALLOON” (priority 2009, published 2011).
